Measurements taken from patent US6627441B1, “Increasing levels of growth regulator and/or water stress during embryo development” (priority 1998, dated 2003).

Columns and labels:
Assay type in all cases: cell-based
[1] = system: white spruce somatic embryos; test: PEG replacement during development, maturation frequency (Example 6); details: treatment 2: PEG constant, lactose added from the third week; versus PEG control; FIG. 2
Procedure: (§1) This experiment was carried out to observe the effect of replacing the non-permeating water stress with a permeating water stress during development. Thus, immature somatic embryos from suspension culture were precultured in 1/20 strength hormone medium for one week then transferred to maturation medium containing 3% sucrose, 20 μM ABA and adjusted to 290 mmol/kg with PEG. They were transferred to fresh medium weekly in which the osmoticum and ABA was increased. For the control (treatment 1) the PEG concentration was increased (as outlined in Example 4, treatment 6). In treatment 2, the PEG remained constant and water potential was increased by adding lactose (treatment 2). In treatment 3, PEG was increased after the first week, then lactose was added at the third and fourth weeks, and in the fifth week PEG was removed and replaced completely with lactose. Treatment 4 was the same as treatment 3, except that sucrose was used in place of lactose. Treatment 5 was similar to treatment 3, except that PEG was replaced with lactose earlier so that PEG was replaced totally by lactose by the fourth week. Total development time was six weeks.
Each treatment comprised nine replicates. The number of embryos per treatment were scored and means prepared. […] The trend was that as PEG was replaced by permeating osmotica, the maturation frequency declined slightly. […]

[2] = system: somatic seedlings of white spruce; test: Germination and shoot development after replacing PEG with alternative osmotica (Example 8); details: for shoot development frequency of somatic seedlings: after 4-5 weeks growth
Procedure: as §1
White spruce somatic embryos were produced using all treatments described in Example 6 (replacement of PEG with sucrose or lactose). […] Embryos were desiccated for two weeks, then rehydrated and visually selected for subsequent transfer to fresh medium. The embryos from all treatments germinated to produce root and epicotyl elongation (i e., 100% germination). Subsequent growth differed amongst the treatments. After four to five weeks growth, 87% of somatic seedlings from treatment 1 had visible new shoot growth (new needles). All other treatments had much lower shoot emergence frequencies.

[3] = system: Douglas fir somatic embryos; test: Douglas fir somatic embryogenesis (Example 11); details: replacing PEG at week 5 or week 6; compared with PEG being maintained
Procedure: Douglas fir may be cultured using sucrose at 1-3% (30-90 mM), however, other sugars may be used at the same concentrations. Maintenance cultures usually contain the sugar at about 1%. […] Douglas fir embryogenic tissue was induced from developing seed. Embryos contained in megametophytes were induced and maintained on TX maintenance medium having 1% sucrose. This medium contained 0.2 g/L glutamine and 0.2 g/L casein hydrolysate. Selected embryogenic tissue was subcultured biweekly per petri dish. Medium was solidified with 2.4 g/L PHYTAGEL™. This medium contained 9 μM 2,4-D and 4.5 μM BA. Liquid suspension cultures were maintained in flasks containing 50 mL liquid maintenance medium Liquid cultures were subcultured weekly. For maturation, the embryogenic suspension was first precultured in liquid medium without growth regulators, and subcultured weekly. The water potential of the maintenance cultures and precultures remained below 150 mmol/kg. After one or two weeks of preculture, 1 to 2 g of filtered tissue was resuspended in 10 mL fresh medium and 0.75 mL of the new suspension was pipetted onto the solid maturation medium. Maturation medium contained calcium chloride at 105 mg/L, and ammonium nitrate was included at 400 mg/L. Glutamine was used at 0.8 g/L for the first week then reduced to 0.1 g/L thereafter. Casein hydrolysate was maintained at 0.2 g/L. The sugar was increased to 2-3% and the medium was solidified with Phytagel at 2.8 to 3.4 g/L. ABA was added into the medium after filter sterilization. The maturation medium also contained PEG. The ABA and water potential were raised following the schedule in the following table.
In some instances, the PEG was reduced and the water potential made up to the desired level using lactose at 0% in the first week, 1% in week 2, 4% in weeks 3 and 4, 5% in week 5, and 6% in week 6. Although this allowed a firmer gel to set than otherwise would occur with PEG alone, it may not provide any other benefit over full PEG (see, for example, Table 8), particularly if liquid culture medium is used. […] The embryos were desiccated and stored in a freezer as described for spruce, or germinated directly without desiccation. For germination, embryos were placed on half-strength basal medium containing 0.4 g/L calcium nitrate, 0.2 g/L ammonium nitrate, no hormones and 2% sucrose and 0.6% agar. These were grown in the light.

[4] = system: white spruce somatic embryos; test: Effect of water stress and ABA on somatic embryo moisture contents (Example 4); details: treatment 2: mannitol 290, 400, 540 mmol/kg with ABA 20, 30, 40 μM; six weeks
Procedure: Water potentials were measured for liquid media containing various osmotica at a range of concentrations, which were plotted on a curve. Determinations were made using a vapour pressure osmometer (Wescor). Moisture content determinations were done using methods described previously by Attree et al. (U.S. Pat. No. 5,464,769).
Embryos were cultured on medium containing 3% sucrose and ABA, with additional osmoticum adjusted to vary water potentials, as shown in Table 4.
Embryos were cultured for six weeks and moisture contents determined. Determinations for each treatment were made weekly, with three replicates per treatment. 50 embryos per replicate were used. In some instances, particularly for the control with low osmoticum, insufficient embryos were produced. In these cases, the minimum number of embryos used per replicate was thirty. For weeks 0 to 2, the embryos were too small to be used for moisture content determinations, so whole tissue was used instead.

Structure (SMILES) | maturation frequency [1] | shoot development frequency of somatic seedlings ([2]; Treatment 2: 6.6% lactose, partial PEG replacement) [%] | shoot development frequency of somatic seedlings ([2]; Treatment 3: 10% lactose, mid replacement) [%] | shoot development frequency of somatic seedlings ([2]; Treatment 5: 10% lactose early replacement) [%] | appearance of embryos before desiccation ([2]; treatment 5 of Example 6 (PEG replaced early with lactose)) | embryo development result [3] | greening of embryos [4] | shoot development frequency of somatic seedlings ([2]; Treatment 4: 13% sucrose mid replacement) [%] | appearance of embryos before desiccation ([2]; treatment 4 of Example 6 (PEG replaced with sucrose))
OC[C@H]1O[C@@H](O[C@H]2[C@H](O)[C@@H](O)C(O)O[C@@H]2CO)[C@H](O)[C@@H](O)[C@H]1O (stereo partly shown) [lactose] | slight decline | 1.5 | 76.5 | 49.2 | very slight splitting of the root cap region | very good results | – | – | –
OC[C@@H](O)[C@@H](O)[C@H](O)[C@H](O)CO [mannitol] | – | – | – | – | – | – | greening was prevented | – | –
OC[C@H]1O[C@@](CO)(O[C@H]2O[C@H](CO)[C@@H](O)[C@H](O)[C@H]2O)[C@@H](O)[C@@H]1O [sucrose] | – | – | – | – | – | very good results | – | 1.6 | very slight splitting of the root cap region
